Experimental data published in patent US20150299721A1, “BIOMASS PRODUCTION INCREASING GENE AND TRANSGENIC PLANT USING SAME” (POSTECH ACADEMY-INDUSTRY FOUNDATION, priority 2012, published 2015).

These compounds were tested on BAT1 gene-overexpressing plant (assay: Restoring of hypocotyl height of BAT1 gene-overexpressing plant by brassinosteroid in the medium). Details: brassinosteroid added at 0.3 μM or 3 μM to 0.5x B5 medium, measured after 7 days (FIG. 5A).
Assay type: in vivo, Arabidopsis thaliana
Experimental: The wild type and the BAT1 gene-overexpressing plant were vertically grown in a greenhouse whose temperature was regulated at about 23° C. under a long-day condition having a 24-hour period of 16-hour light condition/8-hour dark condition in 0.5× B5 media. A hypocotyl of the vertical-grown plant was distinctively shown in the BAT1 gene-overexpressing plant. Various brassinosteroids were treated at various concentrations, and a height of the hypocotyl was measured after 7 days. As the brassinosteroid, brassinolide (BL), castasterone (CS), teasterone (TE), or typhasterol (TY) was added at a concentration of 0.3 μM or 3 μM to the medium.

Q: CC(C)[C@H](C)[C@@H](O)[C@H](O)[C@@H](C)[C@H]1CC[C@H]2[C@@H]3CC(=O)[C@H]4C[C@H](O)[C@H](O)C[C@]4(C)[C@H]3CC[C@]12C [castasterone] was tested. Which “length (height) of hypocotyl” value did it give?
A: The value was “significantly increased”.

Q: CC(C)[C@H](C)[C@@H](O)[C@H](O)[C@@H](C)[C@H]1CC[C@H]2[C@@H]3COC(=O)[C@H]4C[C@H](O)[C@H](O)C[C@]4(C)[C@H]3CC[C@]12C [brassinolide] was tested. Which “length (height) of hypocotyl” value did it give?
A: Its value is “significantly increased”.

Q: CC(C)[C@H](C)[C@@H](O)[C@H](O)[C@@H](C)[C@H]1CC[C@H]2[C@@H]3CC(=O)[C@H]4C[C@H](O)CC[C@]4(C)[C@H]3CC[C@]12C [typhasterol] was tested. Which “length (height) of hypocotyl” value did it give?
A: The value was “significantly increased”.
